This passage reports solubility in water and stability results from US20060216792A1, “Process for producing 2-0-alpha-d-glucopyranosyl-l-ascorbic acid” (priority 2002, published 2006).

The data set is described as follows: properties of crystalline AA-2G (stability, hygroscopicity, solubility). The class given is physicochemical. An excerpt:
Different from the case of L-ascorbic acid, AA-2G hardly causes Maillard reaction. […] Also, by using AA-2G together with vitamins E and P, those biological activities can be increased. • (4) It is possible that AA-2G is produced and metabolized in living bodies when L-ascorbic acid and α-glucosyl saccharide are orally in taken. […] AA-2G can be advantageously used as vitamin C-reinforcement, taste-improving agent, acidifier, stabilizer, and the like for vitamin in the form of powder, granule, tablet, and the like, or foods such as cream, chocolate, chewing gum, instant juice, instant seasoning, and the like. • (6) Crystalline AA-2G is substantially non- or hardly hygroscopic.

Consider `O=C1O[C@H]([C@@H](O)CO)C(O)=C1O[C@H]1O[C@H](CO)[C@@H](O)[C@H](O)[C@H]1O` [AA-2G, 2-O-α-D-glucopyranosyl-L-ascorbic acid], for which the solubility in water result is “high solubility”. Moreover, the stability result (crystalline product of Example 1) was “sufficient stability”.
